Active and inactive are the calls of the source.

The CC50 is the concentration giving 50% cytotoxicity. By IC50 is commonly meant the concentration at which inhibition is half-maximal. One may read the AC50 as the concentration giving half of the maximal activity seen.

Sequence of Cytochrome P450 2C19 (P33261 whole entry): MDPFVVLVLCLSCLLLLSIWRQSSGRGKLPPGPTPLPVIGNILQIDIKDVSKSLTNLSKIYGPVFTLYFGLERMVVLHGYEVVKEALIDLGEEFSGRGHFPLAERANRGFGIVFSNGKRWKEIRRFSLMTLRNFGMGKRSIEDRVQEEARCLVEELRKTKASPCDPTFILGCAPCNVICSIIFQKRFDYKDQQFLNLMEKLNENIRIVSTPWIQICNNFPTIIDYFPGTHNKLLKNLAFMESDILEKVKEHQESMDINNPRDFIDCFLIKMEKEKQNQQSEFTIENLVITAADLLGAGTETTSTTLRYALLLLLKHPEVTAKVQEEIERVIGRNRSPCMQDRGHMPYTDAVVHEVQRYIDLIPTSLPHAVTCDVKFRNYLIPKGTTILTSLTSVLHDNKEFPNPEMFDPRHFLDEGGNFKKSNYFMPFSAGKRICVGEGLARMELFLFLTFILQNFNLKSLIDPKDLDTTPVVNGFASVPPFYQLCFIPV

Test system in one experiment: not listed separately
The experiment can be described thus: viability of uninfected HEp-2 cells – cell-based, HTS, cytotoxicity control for RSV inhibitor project, dose response (AID 2410). The experiment is classed as functional. The conditions noted are these: human respiratory syncytial virus.
With `N#Cc1nc(-c2ccco2)oc1N1CCN(c2cccc(Cl)c2)CC1`, the CC50 was 31.8 µM (active).

`CCC(=O)Nc1nnc(SCC(=O)c2ccc3c(c2)Cc2ccccc2-3)s1`: the CC50 is 42 µM (active).

On to `O=C(C1CCCN(c2ncnc3c2nc2n3CCCCC2)C1)N1CCN(c2cccc(Cl)c2)CC1` (centres undefined), for which the CC50 is 11.7 µM (active).

As for `N#Cc1ccc(OCC(=O)Nc2ccncc2)cc1`, the CC50 is 14.7 µM (active).

As to `CCOc1ccc2[nH]c3ccc4nonc4c3c2c1`, the CC50 is > 50 µM (active).

Consider `COc1ccc(-c2c(C)c3ccc(O)cc3oc2=O)cc1`, for which the half-maximal cytotoxic concentration (CC50) was 20.9 µM (active).

For `Cc1nc(NC(=O)CSc2cc(C)c3ccccc3n2)c(Cl)cc1Cl`, the CC50 was > 50 µM (active).

Regarding `CCNc1oc(-c2cccc3ccccc23)nc1C#N`, the 50% cytotoxic concentration (CC50) is > 50 µM (active).

On to `CCn1c(-c2ccc(-c3ccccc3)cc2)cnc1S`, for which the CC50 is 18.9 µM (active).

As to `OC(CNCCc1ccc(Cl)cc1)COc1cc(Cl)ccc1Cl` (centres undefined), the CC50 was 15.6 µM (active).

On to `CCCCOc1ccc(S(=O)(=O)NNC(=O)C2Cc3c(ccc4ccccc34)O2)cc1` (centres undefined), for which the 50% cytotoxic concentration (CC50) was 27.1 µM (active).

For the compound `Cn1c2c(c3ccccc31)CC/C2=N\O`, the CC50 is 38.5 µM (active).

The target in a further experiment is T1, Heat shock factor protein 1 (Mus musculus, UniProt P38532).
T1 sequence (P38532 whole entry): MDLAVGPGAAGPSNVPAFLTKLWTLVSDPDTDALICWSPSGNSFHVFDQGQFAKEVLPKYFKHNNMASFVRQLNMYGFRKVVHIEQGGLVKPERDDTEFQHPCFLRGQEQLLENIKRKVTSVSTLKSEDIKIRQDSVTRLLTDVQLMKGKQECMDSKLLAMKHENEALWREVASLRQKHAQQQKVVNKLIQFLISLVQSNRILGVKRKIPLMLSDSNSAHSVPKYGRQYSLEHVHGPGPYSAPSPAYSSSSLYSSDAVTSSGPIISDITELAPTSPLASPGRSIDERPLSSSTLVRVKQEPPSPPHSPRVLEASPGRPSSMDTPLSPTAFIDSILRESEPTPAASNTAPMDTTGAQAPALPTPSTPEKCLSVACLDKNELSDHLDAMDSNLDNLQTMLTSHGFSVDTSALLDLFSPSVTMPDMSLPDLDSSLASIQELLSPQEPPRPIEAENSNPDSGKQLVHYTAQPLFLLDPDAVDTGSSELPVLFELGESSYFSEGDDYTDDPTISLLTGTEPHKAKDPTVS
The experiment can be described thus: decrease of HSF1-responsive luciferase luminescence – cell-based, NIH3T3, dose retest, confirmation (AID 2382).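 Note: NIH3T3 fibroblasts with HSF1-driven luciferase reporter stressed by proteasome inhibitor MG132; luminescence from HSF1-driven luciferase expression after 8 hours of MG132 stress.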 It is filed as functional.
Conditions: not given
Consider `Cc1ccc2nc(-c3cccc(Br)c3)cc(C(=O)NCC3CCCO3)c2c1` (centres undefined), for which the EC50 is > 195 µM (not active).

Take `CN1Cc2sc(NC(=S)NC(=O)c3ccccc3)c(C#N)c2CC1(C)C`: the EC50 is 13.9 µM (active).

For `O=C(CN1CC(c2ccccc2)CC1=O)NCc1ccc(F)cc1` (centres undefined), the EC50 was > 195 µM (not active).

For the compound `Cc1cccc(CS(=O)(=O)Cc2ccc(C(=O)NCc3cccs3)o2)c1`, the EC50 is given as > 195 µM (not active).

Consider `CCOC(=O)Cc1csc(NC(=O)Nc2cccs2)n1`, for which the EC50 was > 195 µM (not active).

Consider `CCc1ccc(C(=O)COC(=O)CNC(=O)c2cccs2)cc1`, for which the EC50 is reported as > 195 µM (not active).

With `COc1ccc(Cl)cc1S(=O)(=O)N1CCC(C(=O)NCCc2ccccc2)CC1`, the EC50 is reported as > 195 µM (not active).

As to `Cc1cc(C)c(NC(=O)CSc2nncn2-c2cccnc2)c(C)c1`, the EC50 is recorded as > 195 µM (not active).

For `O=C(O)CCNS(=O)(=O)c1ccccc1C(F)(F)F`, the EC50 is > 195 µM (not active).

Turning to `Cc1cc(N2CCN(c3ccc(F)cc3)CC2)nc2cc(O)ccc12`, the EC50 is given as > 195 µM (not active).

Take `CC(C)NC(=O)N(O)C1N(Cc2ccc3c(c2)OCO3)C(=S)SC1(C)C` (centres undefined): the EC50 is reported as > 195 µM (not active).

Test system in another experiment: not listed separately
The experiment can be described thus: cells. The experiment is classed as functional.
Conditions: not given
Regarding `NC(=O)COC(=O)c1sc2ccccc2c1Cl`, the IC50 was 37.6 µM (active).

For `CCOC(=O)c1nc(O)c2c3c(sc2n1)CC(C)CC3` (centres undefined), the IC50 was 4.55 µM (active).

For `Brc1c(CSc2nncc3ccccc23)nc2ccccn12`, the IC50 is 5.43 µM (active).

Turning to `O=C(Nc1ccc(F)cc1F)c1cc2ccccc2oc1=O`, the IC50 is 39.7 µM (active).

Take `OC(COc1ccccc1Cl)CN1CCN(CC(O)COc2ccccc2Cl)CC1` (centres undefined): the IC50 is 17.3 µM (active).

In the case of `COc1ccc(-c2[nH]ncc2CN2CCCCCCC2)c(OC)c1`, the IC50 is 18.5 µM (active).

With `O=C(N/N=C/c1ccc(Br)s1)c1ccncc1`, the IC50 was < 0.1 µM (active).

`COc1ccc(CCNc2cc(-c3ccccc3)nc3ncnn23)cc1`: the IC50 is 2.48 µM (active).

Another experiment addresses Cytochrome P450 2C19 (Homo sapiens, UniProt P33261). In words: Cytochrome panel assay with activity outcomes. Panel member name: p450-cyp2c19 Compounds with AC50 equal or less than 10 uM are considered active. The following applies: read-out: AC50. It is filed as functional.
As to `Cn1c(COc2nnc(-c3ccc(Cl)cc3)c3ccccc23)nc2ccccc21`, the AC50 was 14.1 µM (inconclusive).

On to `CCCS(=O)(=O)N1CCCC(C(=O)NCc2cccnc2)C1` (centres undefined), for which the AC50 is 15.8 µM (inconclusive).

Another experiment concerns the target T2, Corticotropin-releasing factor receptor 2/Corticotropin-releasing factor-binding protein (Homo sapiens, UniProt P24387+Q13324).
T2 sequence (Q13324 whole entry): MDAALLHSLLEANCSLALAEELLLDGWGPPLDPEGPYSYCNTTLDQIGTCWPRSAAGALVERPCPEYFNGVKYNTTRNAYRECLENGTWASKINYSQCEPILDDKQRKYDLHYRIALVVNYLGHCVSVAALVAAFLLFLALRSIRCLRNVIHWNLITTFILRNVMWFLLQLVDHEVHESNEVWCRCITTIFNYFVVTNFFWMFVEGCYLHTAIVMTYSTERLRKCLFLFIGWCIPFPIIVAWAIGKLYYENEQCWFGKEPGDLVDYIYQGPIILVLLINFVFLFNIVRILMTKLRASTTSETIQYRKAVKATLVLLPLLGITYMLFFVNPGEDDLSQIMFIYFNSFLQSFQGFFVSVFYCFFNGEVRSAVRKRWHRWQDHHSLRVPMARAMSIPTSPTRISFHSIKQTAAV
T2 sequence (P24387 whole entry): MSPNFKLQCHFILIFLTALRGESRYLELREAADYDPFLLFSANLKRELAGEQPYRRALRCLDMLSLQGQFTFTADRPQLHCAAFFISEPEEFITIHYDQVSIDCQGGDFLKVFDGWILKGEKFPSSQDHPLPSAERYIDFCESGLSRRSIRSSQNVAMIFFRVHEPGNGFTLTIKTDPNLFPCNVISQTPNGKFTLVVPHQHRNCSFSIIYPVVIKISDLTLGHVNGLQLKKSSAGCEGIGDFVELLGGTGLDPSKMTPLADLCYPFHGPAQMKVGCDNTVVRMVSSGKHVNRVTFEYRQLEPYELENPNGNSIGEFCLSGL
The experiment can be described thus: activators of CRF receptor 2 with binding protein – uHTS hits, confirmation (AID 602473). It is filed as functional. The following applies: read-out: EC50_Mean.
Take `CN(C)c1ccc(/C=C/C(=O)c2ccc(O)cc2)cc1`: the EC50 is 5.34 µM (active).

On to `Cc1ccc(S(=O)(=O)N(C)CC(=O)NCCCc2ccccc2)cc1`, for which the EC50 is > 53 µM (inactive).

As to `O=C(NC(C(=O)N/N=C/c1ccccc1)c1nnc(O)c2ccccc12)c1ccccc1` (centres undefined), the EC50 was 5.14 µM (active).

The target of another experiment is Cytochrome P450 2D6 (Homo sapiens, UniProt P10635).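 Note: CYP2D6 member of a cytochrome P450 panel assay.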
Sequence of Cytochrome P450 2D6 (P10635 whole entry): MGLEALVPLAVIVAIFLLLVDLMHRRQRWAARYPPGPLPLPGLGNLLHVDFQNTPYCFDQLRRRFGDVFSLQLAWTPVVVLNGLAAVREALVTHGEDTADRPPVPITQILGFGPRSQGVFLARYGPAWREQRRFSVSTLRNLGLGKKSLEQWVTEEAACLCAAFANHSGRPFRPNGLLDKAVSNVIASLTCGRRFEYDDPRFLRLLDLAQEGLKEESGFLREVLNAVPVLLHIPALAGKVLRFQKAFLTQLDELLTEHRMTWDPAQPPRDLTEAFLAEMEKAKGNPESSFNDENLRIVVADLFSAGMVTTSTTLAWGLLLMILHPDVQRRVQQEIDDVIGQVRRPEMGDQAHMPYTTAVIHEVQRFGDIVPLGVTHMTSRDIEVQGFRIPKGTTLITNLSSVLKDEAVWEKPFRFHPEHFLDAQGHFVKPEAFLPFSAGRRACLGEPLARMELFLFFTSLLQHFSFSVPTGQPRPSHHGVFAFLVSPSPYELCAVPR
Test: not given
Conditions: not given
Take `CN1CC(c2ccccn2)C2(SC(=S)N(Cc3ccccc3)C2=O)C12C(=O)Nc1ccccc12` (centres undefined): the AC50 was 28.2 µM (inconclusive).

With `CN(C)C(=O)c1ccc(-c2cc(NCc3ccccc3)ncn2)cc1`, the AC50 is 39.8 µM (inconclusive).

Turning to `COC(=O)[C@@]1(Cc2ccc(OC)cc2)[C@H]2c3cc(C(=O)N(C)C)n(Cc4ccc(C)c(F)c4F)c3C[C@H]2CN1C(=O)c1ccccc1`, the AC50 was 12.6 µM (inconclusive).

For `CS(=O)(=O)Nc1cccc(-c2cncnc2Nc2ccccc2)c1`, the AC50 was 25.1 µM (inconclusive).

With `COc1cccc(-c2ccc3ncnc(N4CCOCC4)c3c2)c1`, the AC50 was 31.6 µM (inconclusive).

For `CCN(CC)C[C@@H](O)CN1CCCCc2nc(C)c(C)cc21`, the AC50 was 2.51 µM (inconclusive).

Consider `CCN(CC)C(=O)CSc1nc2ccc(NC(=O)CSc3nnc(COc4ccccc4C)n3C)cc2s1`, for which the AC50 was 14.1 µM (inconclusive).

For the compound `COc1cccc(-c2nc(Nc3ccncc3)c3ccccc3n2)c1`, the AC50 was 25.1 µM (inconclusive).

Turning to `Cc1ccc(C)c(S(=O)(=O)N2CCC(c3nc(O)c4nnn(Cc5ccc(F)cc5)c4n3)CC2)c1`, the AC50 is 14.1 µM (inconclusive).

As to `CC(C)NCC[C@@H](O)c1cc2ccccc2o1`, the AC50 was 3.16 µM (inconclusive).

Take `Cc1ccc(OCC(=O)Nn2cnc3ccccc32)cc1`: the AC50 was 10 µM (inconclusive).

In the case of `Cc1ccc(C(=O)NN2CCOCC2)cc1`, the AC50 was 0.224 µM (inconclusive).

On to `Cc1cccc(CNc2ncncc2-c2cccc(C#N)c2)c1`, for which the AC50 is 31.6 µM (inconclusive).

`O=C(Cc1ccc(Cl)c(Cl)c1)OCCN1CCCC1`: the AC50 was 31.6 µM (inconclusive).

For the next experiment, the target named is T3, Cytochrome P450 1A2 (Homo sapiens, UniProt P05177).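 Note: PubChem cytochrome P450 panel assay, CYP1A2 panel member.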
T3 sequence (P05177 whole entry): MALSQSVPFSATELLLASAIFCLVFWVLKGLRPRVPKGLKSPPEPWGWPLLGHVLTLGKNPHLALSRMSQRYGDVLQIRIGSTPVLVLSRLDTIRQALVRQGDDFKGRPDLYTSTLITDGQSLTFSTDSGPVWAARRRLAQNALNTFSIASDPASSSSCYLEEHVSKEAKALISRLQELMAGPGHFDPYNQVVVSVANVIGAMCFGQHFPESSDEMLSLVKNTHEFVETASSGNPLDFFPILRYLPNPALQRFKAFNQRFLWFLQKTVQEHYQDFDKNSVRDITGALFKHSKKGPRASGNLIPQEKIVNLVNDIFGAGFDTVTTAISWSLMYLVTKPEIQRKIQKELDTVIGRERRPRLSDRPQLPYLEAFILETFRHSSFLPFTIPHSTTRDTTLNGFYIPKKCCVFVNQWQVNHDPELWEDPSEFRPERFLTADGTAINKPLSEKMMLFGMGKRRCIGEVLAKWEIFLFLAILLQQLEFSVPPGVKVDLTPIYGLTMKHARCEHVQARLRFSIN
Test: not given
Conditions: not given
With `CCCCC(=O)NC(Nc1cc(C)ccn1)(C(=O)OCC)C(F)(F)F` (centres undefined), the AC50 was 15.8 µM (inconclusive).

For the compound `Cn1c(COc2nnc(-c3ccc(Cl)cc3)c3ccccc23)nc2ccccc21`, the AC50 is 14.1 µM (inconclusive).

Take `CN(C)C(=O)c1ccc(-c2cc(NCc3ccccc3)ncn2)cc1`: the AC50 was 12.6 µM (inconclusive).

On to `CCCc1cc2c(n1CCc1ccc(Cl)cc1)C(C)C1CN(C(=O)c3ccccc3)C(C)(C(=O)OC)C21` (centres undefined), for which the AC50 is 25.1 µM (inconclusive).

With `COc1ccccc1C(=O)N/C(=C/c1ccc(Br)cc1)C(=O)NCC(=O)O`, the AC50 is 12.6 µM (inconclusive).

Take `O=c1c(-c2cc(F)cc(F)c2)nc2cnc(N3CCOCC3)nc2n1C[C@H]1CCCO1`: the AC50 is 2.51 µM (inconclusive).

Turning to `CCCS(=O)(=O)N1CCCC(C(=O)NCc2cccnc2)C1` (centres undefined), the AC50 is 0.00631 µM (inconclusive).

Regarding `COC(=O)[C@@]1(Cc2ccc(F)cc2)[C@H]2c3cc(C(=O)N(C)C)n(CC4CC4)c3C[C@H]2CN1C(=O)c1ccccc1`, the AC50 is 25.1 µM (inconclusive).

For `COc1ccc(CCNC(=O)c2ccccc2NC(=O)c2ccco2)cc1OC`, the AC50 was 22.4 µM (inconclusive).

The record behind these values is ChEMBL document CHEMBL1201862, “PubChem BioAssay data set” (2004).
